What all share (type): biochemical
One assay addresses T1, MER (Homo sapiens, UniProt Q12866).
T1 sequence (Q12866 21-999): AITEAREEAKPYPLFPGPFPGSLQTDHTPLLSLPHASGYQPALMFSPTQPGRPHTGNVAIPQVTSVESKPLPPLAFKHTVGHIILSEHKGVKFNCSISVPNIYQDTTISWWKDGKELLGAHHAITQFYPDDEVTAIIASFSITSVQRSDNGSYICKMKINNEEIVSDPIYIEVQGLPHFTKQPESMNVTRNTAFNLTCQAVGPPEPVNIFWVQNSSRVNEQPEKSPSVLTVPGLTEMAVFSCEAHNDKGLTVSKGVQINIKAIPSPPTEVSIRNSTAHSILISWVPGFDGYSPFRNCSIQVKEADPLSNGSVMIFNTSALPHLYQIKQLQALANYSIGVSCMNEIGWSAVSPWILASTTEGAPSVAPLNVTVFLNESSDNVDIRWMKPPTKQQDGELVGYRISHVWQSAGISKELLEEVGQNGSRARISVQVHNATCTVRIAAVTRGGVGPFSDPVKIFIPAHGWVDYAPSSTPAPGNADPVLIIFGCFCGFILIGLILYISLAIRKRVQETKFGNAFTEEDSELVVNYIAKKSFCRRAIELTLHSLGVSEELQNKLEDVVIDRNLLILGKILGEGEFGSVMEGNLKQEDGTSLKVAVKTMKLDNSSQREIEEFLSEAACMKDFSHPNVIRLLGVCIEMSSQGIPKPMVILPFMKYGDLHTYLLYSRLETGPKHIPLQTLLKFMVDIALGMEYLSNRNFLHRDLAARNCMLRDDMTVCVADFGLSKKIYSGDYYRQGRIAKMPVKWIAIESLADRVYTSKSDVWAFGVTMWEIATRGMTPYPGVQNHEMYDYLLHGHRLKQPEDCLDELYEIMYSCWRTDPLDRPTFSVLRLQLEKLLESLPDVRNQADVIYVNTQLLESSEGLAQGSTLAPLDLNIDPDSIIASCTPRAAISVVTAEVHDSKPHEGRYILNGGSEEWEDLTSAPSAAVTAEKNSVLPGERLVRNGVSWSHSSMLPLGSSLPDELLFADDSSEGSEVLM
Briefly: Kinome profiling MER. The settings on record: read-out: Inhibitory activity MER; for inhibition at 0.1 µM: 100 nM. As for the experimental part:
(§1) . The kinome-wide selectivity was determined following the methods previously reported by Mohedas et al., ACS Chem Biol 2013, 8, 1291-1302 and Sanvitale et al., PLoS One 2013, 8, e62721.

In a further assay the target is DYRK1B (Homo sapiens, UniProt Q9Y463). Briefly: Kinome profiling DYRK1B. The following applies: read-out: Inhibitory activity DYRK1B; for inhibition at 0.1 µM: 100 nM. As for the experimental part: as §1
DYRK1B, sequence (Q9Y463 whole entry): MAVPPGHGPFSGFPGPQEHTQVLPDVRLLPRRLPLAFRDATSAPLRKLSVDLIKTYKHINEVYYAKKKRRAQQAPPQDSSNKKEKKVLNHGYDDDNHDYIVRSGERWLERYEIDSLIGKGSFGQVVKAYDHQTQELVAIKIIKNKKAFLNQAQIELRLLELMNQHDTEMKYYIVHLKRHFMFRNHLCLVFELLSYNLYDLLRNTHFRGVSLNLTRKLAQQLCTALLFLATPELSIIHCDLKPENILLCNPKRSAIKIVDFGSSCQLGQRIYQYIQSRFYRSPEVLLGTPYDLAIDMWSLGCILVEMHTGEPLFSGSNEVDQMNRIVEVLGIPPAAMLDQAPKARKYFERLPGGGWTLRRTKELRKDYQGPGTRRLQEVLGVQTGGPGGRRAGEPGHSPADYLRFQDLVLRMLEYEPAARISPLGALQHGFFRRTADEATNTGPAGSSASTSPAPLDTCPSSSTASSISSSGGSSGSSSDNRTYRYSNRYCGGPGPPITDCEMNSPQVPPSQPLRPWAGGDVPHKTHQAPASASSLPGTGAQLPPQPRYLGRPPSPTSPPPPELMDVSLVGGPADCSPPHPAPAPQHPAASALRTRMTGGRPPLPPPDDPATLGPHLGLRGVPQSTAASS
A further assay concerns the target NEK6 (Homo sapiens, UniProt Q9HC98). The assay is described as follows: Kinome profiling NEK6. The settings on record: read-out: Inhibitory activity NEK6; for inhibition at 0.1 µM: 100 nM. The procedure:
as §1

For another assay, the target named is KDR (Homo sapiens, UniProt P35968). The assay is described as follows: Kinome profiling KDR. The following applies: read-out: Inhibitory activity KDR; for inhibition at 0.1 µM: 100 nM. As for the experimental part: as §1
KDR, sequence (P35968 20-1356): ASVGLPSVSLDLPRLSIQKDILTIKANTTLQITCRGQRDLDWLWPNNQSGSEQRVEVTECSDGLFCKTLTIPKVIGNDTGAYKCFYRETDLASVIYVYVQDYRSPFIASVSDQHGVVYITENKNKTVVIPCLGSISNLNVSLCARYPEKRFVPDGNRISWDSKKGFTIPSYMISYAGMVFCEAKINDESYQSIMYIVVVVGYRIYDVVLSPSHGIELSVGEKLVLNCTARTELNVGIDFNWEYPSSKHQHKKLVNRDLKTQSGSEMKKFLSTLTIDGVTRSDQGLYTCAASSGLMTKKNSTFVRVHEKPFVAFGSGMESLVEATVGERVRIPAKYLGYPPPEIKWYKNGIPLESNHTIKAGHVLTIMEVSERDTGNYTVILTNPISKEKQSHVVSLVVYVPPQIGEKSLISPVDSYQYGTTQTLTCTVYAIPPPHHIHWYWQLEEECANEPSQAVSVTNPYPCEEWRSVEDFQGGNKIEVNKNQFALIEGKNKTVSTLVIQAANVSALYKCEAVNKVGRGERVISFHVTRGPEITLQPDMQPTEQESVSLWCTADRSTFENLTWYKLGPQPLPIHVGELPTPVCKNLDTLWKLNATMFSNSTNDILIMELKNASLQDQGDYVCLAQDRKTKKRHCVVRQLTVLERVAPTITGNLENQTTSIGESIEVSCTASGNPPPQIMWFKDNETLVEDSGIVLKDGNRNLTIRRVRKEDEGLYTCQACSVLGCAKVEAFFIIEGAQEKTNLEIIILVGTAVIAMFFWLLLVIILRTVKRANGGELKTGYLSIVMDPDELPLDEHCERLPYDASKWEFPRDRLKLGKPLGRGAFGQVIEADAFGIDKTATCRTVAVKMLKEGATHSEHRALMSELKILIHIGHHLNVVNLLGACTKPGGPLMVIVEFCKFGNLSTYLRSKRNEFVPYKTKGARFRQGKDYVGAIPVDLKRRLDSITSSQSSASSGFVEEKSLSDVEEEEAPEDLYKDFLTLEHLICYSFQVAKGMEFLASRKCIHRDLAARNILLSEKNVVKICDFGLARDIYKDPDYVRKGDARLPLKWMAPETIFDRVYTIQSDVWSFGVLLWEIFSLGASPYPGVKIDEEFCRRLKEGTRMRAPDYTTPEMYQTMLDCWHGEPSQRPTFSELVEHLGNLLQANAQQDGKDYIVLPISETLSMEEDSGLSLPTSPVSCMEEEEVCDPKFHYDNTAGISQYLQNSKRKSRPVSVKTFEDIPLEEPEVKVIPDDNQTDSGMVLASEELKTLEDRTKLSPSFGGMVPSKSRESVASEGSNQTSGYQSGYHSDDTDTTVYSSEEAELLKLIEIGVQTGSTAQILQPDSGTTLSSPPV
Another assay concerns the target P38β (Homo sapiens, UniProt Q15759). Briefly: Kinome profiling P38β. The settings on record: read-out: Inhibitory activity P38β; for inhibition at 0.1 µM: 100 nM. The procedure: as §1
A further assay concerns the target MNK2 (Homo sapiens, UniProt Q9HBH9). The assay is described as follows: Kinome profiling MNK2. The following applies: read-out: Inhibitory activity MNK2; for inhibition at 0.1 µM: 100 nM. The procedure:
as §1

In the next assay the target is T2, EPHB2 (Homo sapiens, UniProt P29323).
T2 sequence (P29323 19-1055): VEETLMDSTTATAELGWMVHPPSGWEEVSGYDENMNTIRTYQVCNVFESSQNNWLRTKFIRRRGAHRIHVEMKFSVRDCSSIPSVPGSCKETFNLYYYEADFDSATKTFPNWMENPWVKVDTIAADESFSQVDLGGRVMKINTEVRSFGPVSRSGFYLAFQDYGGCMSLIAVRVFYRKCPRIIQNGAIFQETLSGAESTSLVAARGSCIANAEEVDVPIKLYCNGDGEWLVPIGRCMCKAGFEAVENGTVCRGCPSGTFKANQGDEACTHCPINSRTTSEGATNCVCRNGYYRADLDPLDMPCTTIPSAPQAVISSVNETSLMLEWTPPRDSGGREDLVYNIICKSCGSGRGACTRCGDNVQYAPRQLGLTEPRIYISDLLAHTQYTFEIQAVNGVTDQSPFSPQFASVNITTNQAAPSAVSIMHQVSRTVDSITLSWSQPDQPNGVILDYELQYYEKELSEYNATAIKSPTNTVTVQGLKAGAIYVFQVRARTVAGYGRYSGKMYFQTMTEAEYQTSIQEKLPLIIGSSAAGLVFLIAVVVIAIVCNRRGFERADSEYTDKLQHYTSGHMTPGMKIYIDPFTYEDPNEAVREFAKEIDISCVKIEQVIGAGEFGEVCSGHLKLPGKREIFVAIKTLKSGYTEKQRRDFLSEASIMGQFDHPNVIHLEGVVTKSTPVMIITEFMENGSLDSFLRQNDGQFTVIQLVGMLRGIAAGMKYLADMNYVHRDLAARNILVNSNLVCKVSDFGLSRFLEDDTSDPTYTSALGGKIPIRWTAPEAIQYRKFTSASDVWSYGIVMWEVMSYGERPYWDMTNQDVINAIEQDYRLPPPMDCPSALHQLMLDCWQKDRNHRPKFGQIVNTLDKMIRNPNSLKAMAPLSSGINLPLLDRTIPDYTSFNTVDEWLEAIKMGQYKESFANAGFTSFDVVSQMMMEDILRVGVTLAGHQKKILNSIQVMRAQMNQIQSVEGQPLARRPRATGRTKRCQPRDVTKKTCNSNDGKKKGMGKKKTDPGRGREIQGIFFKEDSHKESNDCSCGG
The assay is described as follows: Kinome profiling EPHB2. The following applies: read-out: Inhibitory activity EPHB2; for inhibition at 0.1 µM: 100 nM. The procedure:
as §1

Structures are written as SMILES.

MNK2, sequence (Q9HBH9 whole entry): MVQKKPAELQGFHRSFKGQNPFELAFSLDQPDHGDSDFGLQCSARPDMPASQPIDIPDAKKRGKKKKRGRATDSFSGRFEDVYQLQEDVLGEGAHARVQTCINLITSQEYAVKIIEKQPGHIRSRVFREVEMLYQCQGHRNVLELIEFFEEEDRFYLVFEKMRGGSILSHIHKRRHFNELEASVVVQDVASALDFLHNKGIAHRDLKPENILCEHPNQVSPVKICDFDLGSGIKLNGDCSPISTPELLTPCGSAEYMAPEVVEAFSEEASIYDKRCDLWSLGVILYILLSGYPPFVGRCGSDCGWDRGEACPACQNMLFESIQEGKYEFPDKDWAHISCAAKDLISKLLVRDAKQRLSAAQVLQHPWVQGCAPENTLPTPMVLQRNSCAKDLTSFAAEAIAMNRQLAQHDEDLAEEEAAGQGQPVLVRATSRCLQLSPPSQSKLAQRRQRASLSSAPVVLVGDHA
P38β, sequence (Q15759 whole entry): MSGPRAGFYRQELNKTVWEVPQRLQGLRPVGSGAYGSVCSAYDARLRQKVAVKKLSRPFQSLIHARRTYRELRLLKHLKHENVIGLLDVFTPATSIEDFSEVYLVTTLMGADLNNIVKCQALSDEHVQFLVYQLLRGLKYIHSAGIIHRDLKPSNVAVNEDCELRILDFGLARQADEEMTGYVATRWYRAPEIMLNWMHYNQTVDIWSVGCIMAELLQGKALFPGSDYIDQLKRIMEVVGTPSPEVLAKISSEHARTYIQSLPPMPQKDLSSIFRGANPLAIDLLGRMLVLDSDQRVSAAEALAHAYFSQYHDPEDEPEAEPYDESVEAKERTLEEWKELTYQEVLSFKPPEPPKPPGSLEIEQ
NEK6, sequence (Q9HC98 whole entry): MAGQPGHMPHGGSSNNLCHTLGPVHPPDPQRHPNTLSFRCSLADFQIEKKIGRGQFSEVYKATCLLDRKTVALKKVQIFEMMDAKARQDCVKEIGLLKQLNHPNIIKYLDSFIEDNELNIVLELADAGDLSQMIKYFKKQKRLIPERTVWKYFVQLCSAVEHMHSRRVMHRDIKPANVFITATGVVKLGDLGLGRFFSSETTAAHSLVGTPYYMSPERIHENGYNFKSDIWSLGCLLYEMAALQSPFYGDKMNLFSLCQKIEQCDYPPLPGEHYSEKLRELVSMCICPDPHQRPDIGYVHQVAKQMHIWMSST

`COc1cc(-c2cc(-c3ccc(N4CCNCC4)cc3)cnc2N)cc(OC)c1OC` [Compound 15, 5-(4-(piperazin-1-yl)phenyl)-3-(3,4,5-trimethoxyphenyl)pyridin-2-amine]: the inhibition at 0.1 µM is 30% at MER; -1% at DYRK1B; 0% on NEK6; 6% at KDR; 10% at P38β; 1% on MNK2. Also, the inhibition at 0.1 µM on EPHB2 was determined as 22%. Further, the inhibition at 1 µM at MER came out at 76%; at DYRK1B, 4%; on NEK6 it was 4%; at KDR, 22%; at P38β, 44%; on MNK2, 7%. Besides, the inhibition at 1 µM on EPHB2 was found to be 70%.
Consider `COc1cc(-c2cc(-c3ccc(N4CCNCC4)cc3)cnc2C)cc(OC)c1OC` [Compound 10, 1-(4-(6-methyl-5-(3,4,5-trimethoxyphenyl)pyridin-3-yl)phenyl)piperazine], for which the inhibition at 0.1 µM came to 8% at MER; 2% at DYRK1B; 1% at NEK6; 0% on KDR; 1% on P38β; 6% on MNK2. The inhibition at 0.1 µM on EPHB2 was 5%. Also, the inhibition at 1 µM on MER was found to be 36%; on DYRK1B, 5%; on NEK6 it was 0%; at KDR, 3%; at P38β, 11%; on MNK2 it was 6%. In addition, the inhibition at 1 µM on EPHB2 is 15%.

(Values after patent US20170190705A1, “Compositions and Methods for Inhibiting BMP” (THE BRIGHAM AND WOMAN'S HOSPITAL, INC., priority 2014, published 2017).)
